How the values were obtained:
mRNAs in J774.2 cells = experiment: Affymetrix microarray: mRNAs up- or down-regulated by Compounds A and B in LPS-stimulated macrophages; assay type: cell-based, murine; conditions: 50 μg/ml compound + 100 ng/ml LPS, 24 hours, J774.2 only; for Numbers of mRNAs with levels significantly altered by both Compounds A and B, in the presence of LPS: Decreased: decreased at least 2-fold by both compounds; for Numbers of mRNAs with levels significantly altered by both Compounds A and B, in the presence of LPS: Increased: increased at least 2-fold by both compounds
Experimental: (§1) Two murine macrophage cell lines were used: J774.2 (gift from Peter Lambert, Aston University, UK), and RAW 264.7 (ATCC item number TIB-71). Cells were harvested from nearly confluent culture flasks and seeded into 6 well plates at a density of 5×10^6 cells well^−1 in a volume of 3 ml Dulbecco's modified essential medium supplemented with 10% fetal calf serum. After 2 hours, cells were exposed to the following conditions:
5) 50 μg/ml Compound A+100 ng/ml LPS (J774 cells only)
6) 50 μg/ml Compound B+100 ng/ml LPS (J774 cells only)
(§2) The tetracycline compounds were added 1.5 hours post seeding, thirty minutes before the addition of LPS. The plates were incubated at 37° C. at 5% CO2 in a humidified incubator.
(§3) 24 hours after incubation under experimental conditions, media was removed from the wells, and total RNA was purified from each sample using QIAGEN RNeasy® Mini columns. The manipulations which were then performed on the total RNA samples were as outlined in The Affymetrix® GeneChip® Expression Analysis technical manual, sections 2, chapter 1, entitled Eukaryotic Target Preparation. Briefly, RNA was reverse transcribed into double stranded cDNA with an oligo dT primer containing a T7 promoter. The product was then purified by phenol:chloroform:isoamyl extraction and ethanol precipitation, and then used in an […] to synthesize biotin-labelled antisense cRNA (Affymetrix controls of B. subtilis genes excised from pBluescript plasmid with Xho I digestion were added at this stage to control for correct translation and biotin incorporation). The cRNA was then cleaned using QIAGEN RNeasy® Mini columns, and the resulting cRNA solution fragmented using metal-induced hydrolysis.
Samples were prepared for hybridization with the Affymetrix murine genome chips U74AV2 according to the directions in the Affymetrix® GeneChip® Expression Analysis technical manual, sections 2, chapters 3 and 4, entitled Eukaryotic Target Hybridization and Eukaryotic Arrays: Washing Staining and Scanning. Briefly, 15 ug Fragmented cRNA was mixed with Affymetrix hybridization controls, herring sperm DNA, BSA, and concentrated hybridization buffer, boiled for 5 minutes, centrifuged at 14000×g for 5 minutes to obtain a precipitated-free solution, and hybridized with the array for 16 hours. […]
For J774.2 cells stimulated by LPS, two lists were generated, one of mRNAs which were increased at lease 2-fold by Compounds A and/or B, and one of mRNAs which were decreased at least 2-fold by Compounds A and/or B. In the case of mRNAs which were increased, the mRNAs had to be statistically ‘Present’ in the samples which contained Compounds A and/or B (‘Present’ as determined by the Affymetrix microarray suite software).

in vitro = assay type: cell-based; conditions: African green monkey (COS-1) and Chinese hamster (CHO-K1)
Experimental: COS-1 and CHO-K1 cell suspensions were prepared, seeded into 96-well tissue culture treated black-walled microtiter plates (density determined by cell line), and incubated overnight at 37° C., in 5% CO2 and approximately 95% humidity. The following day, serial dilutions of drug were prepared under sterile conditions and transferred to cell plates. Cell/Drug plates were incubated under the above conditions for 24 hours. Following the incubation period, media/drug was aspirated and 50 μl of Resazurin (0.042 mg/ml in PBS w/Ca and Mg) was added. The plates were then incubated under the above conditions for 2 hours and then in the dark at room temperature for an additional 30 minutes. Fluorescence measurements were taken (excitation 535 nm, emission 590 nm). The IC50 (concentration of drug causing 50% growth inhibition) was then calculated.

[1] = system: mRNAs in J774.2 and RAW264.7 cells; experiment: Affymetrix microarray: mRNAs up- or down-regulated by minocycline in murine macrophage cell lines; assay type: cell-based; conditions: 24 hours
Experimental: as §1
1) control (J774 cells on two separate occasions, and RAW 264.7 cells)
2) 50 μg/ml minocycline (J774 cells on two separate occasions, and RAW 264.7 cells)
3) 100 ng/ml LPS (J774 cells on two separate occasions, and RAW 264.7 cells)
4) 50 μg/ml minocycline+100 ng/ml LPS (J774 cells on two separate occasions, and RAW 264.7 cells)
as §2
as §3, with “hydrolysis. […]” for “hydrolysis.”
For both J774.2 and RAW264.7 cells, two lists were generated, one of mRNAs which were increased at lease 2-fold by minocycline, and one of mRNAs which were decreased at least 2-fold by minocycline. In the case of mRNAs which were increased, the mRNAs had to be statistically ‘Present’ in the samples which contained minocycline (‘Present’ as determined by the Affymetrix microarray suite software). […]
For both J774.2 and RAW264.7 cells stimulated by LPS, two lists were generated, one of mRNAs which were increased at lease 2-fold by minocycline, and one of mRNAs which were decreased at least 2-fold by minocycline. In the case of mRNAs which were increased, the mRNAs had to be statistically ‘Present’ in the samples which contained minocycline (‘Present’ as determined by the Affymetrix microarray suite software).

SMILES | Numbers of mRNAs with levels significantly altered by both Compounds A and B, in the presence of LPS: Decreased (mRNAs in J774.2 cells) | Numbers of mRNAs with levels significantly altered by both Compounds A and B, in the presence of LPS: Increased (mRNAs in J774.2 cells) | IC50 at 24 h (in vitro) [µg/mL] | Numbers of mRNAs with levels significantly altered by minocycline, in the presence of LPS: Decreased ([1]; 50 μg/ml minocycline + 100 ng/ml LPS, decreased at least 2-fold, common to all three lists (J774.2 twice, RAW264.7)) | Numbers of mRNAs with levels significantly altered by minocycline, in the presence of LPS: Increased ([1]; 50 μg/ml minocycline + 100 ng/ml LPS, increased at least 2-fold, common to all three lists (J774.2 twice, RAW264.7)) | Numbers of mRNAs with levels significantly altered by minocycline: Decreased ([1]; 50 μg/ml minocycline, no LPS, decreased at least 2-fold, mRNAs common to all three lists (J774.2 twice, RAW264.7)) | Numbers of mRNAs with levels significantly altered by minocycline: Increased ([1]; 50 μg/ml minocycline, no LPS, increased at least 2-fold, mRNAs common to all three lists (J774.2 twice, RAW264.7))
CN(C)C1C(O)=C(C(N)=O)C(=O)[C@@]2(O)C(O)=C3C(=O)c4c(O)ccc(CNCC(C)(C)C)c4C[C@H]3C[C@@H]12 (stereo partly shown) [Compound A] | 108 | 133 |  |  |  |  | 
C[C@H]1c2ccc(N3CCCCC3)c(O)c2C(=O)C2=C(O)[C@]3(O)C(=O)C(C(N)=O)=C(O)C(N(C)C)[C@@H]3[C@@H](O)[C@@H]21 (stereo partly shown) [Compound B] | 108 | 133 |  |  |  |  | 
C[C@H]1c2cccc(O)c2C(=O)C2=C(O)[C@]3(O)C(=O)C(C(N)=O)=C(O)[C@@H](N(C)C)[C@@H]3[C@@H](O)[C@@H]21 [doxycycline] |  |  | > 25 |  |  |  | 
CN(C)c1ccc(O)c2c1C[C@H]1C[C@H]3[C@H](N(C)C)C(O)=C(C(N)=O)C(=O)[C@@]3(O)C(O)=C1C2=O [minocycline] |  |  | > 25 | 9 | 28 | 4 | 21

From US9562003B2, “Methods of using substituted tetracycline compounds to modulate RNA” (Paratek Pharmaceuticals, Inc., priority 2002, dated 2017)
